In patent US11173173B2, “Methods for treating chemoresistant cancer-initiating cells” (UNIVERSITY OF CONNECTICUT, priority 2015, dated 2021):

Key:
[1] = cited from earlier work
[2] = test system: colon cancer; details: in vitro; cited from earlier work
[3] = test system: pS^552-β-catenin; test: Western analysis of pS552-β-catenin in compound-treated TOP and FOP cells
Protocol: (§1) Cytotoxicity profiles (CTG) of compounds were also determined. […] TOP and FOP cells were treated with candidate compounds at EC90, EC50 and EC25 derived from (b) for 48 hours, washed and flash frozen for Western analysis (c).
(§2) Activity of compounds was tested against HEK-TOP cells vs. HEK FOP cells for inhibition of luciferase activity. The cytotoxicity profiles of the compounds were also tested using Cell Titer Glo assay (Promega) on HEK-TOP cell lines. […] The HEK cells and HEK Top cells were plated at 300,000 cells/well in 6 well plates and were treated in duplicate with EC90, EC50 and EC25 concentrations of the 25 repurchased compounds as well as three controls. After 48 h of exposure, the cells were washed with PBS and flash frozen. The frozen cells were lysed directly in plates for Western analysis.

[4] = test system: pan β-catenin; test: Western analysis of pan β-catenin in compound-treated TOP and FOP cells; details: TOP and FOP cells treated 48 hours at EC90, EC50, EC25
Protocol: as §1, §2

[5] = test system: BM cells isolated from leukemic Pten:β-cat^Act double mutants (LSCs, HSPCs); test: In vitro treatment of BM cells from leukemic mice, flow cytometry for LSCs and HSPCs; format: cell-based, mouse; details: BM cells from leukemic double mutants in vitro
Protocol: Doxorubicin, 0105375, and thioguanosine were added to 11, 33 or 100 nM and cultured for 72 hours and analyzed by flow cytometry for LSCs (a) and HSPCs (b) as in FIG. 1. Fold change before and after culture for each population is indicated relative to equivalent vehicle control concentrations.
Bone marrow cells from leukemic mice at 8 weeks post-induction were cultured overnight at 5-20×10^4 cells per well in 96-well U-bottom tissue culture plates (Becton, Dickinson and Company; Cat. No. 353077) in HSC expansion media in low O2 conditions as previously described (Perry, J. M. et al. Cooperation between both Wnt/{beta}-catenin and PTEN/PI3K/Akt signaling promotes primitive hematopoietic stem cell self-renewal and expansion. Genes Dev 25, 1928-1942 (2011)). Doxorubicin (Sigma; D1515), 0105375 ((S)-N-(2-bromobenzyl)-N-(1-hydroxy-3-phenylpropan-2-yl)ethenesulfonamide, University of Kansas CMLD compound), or Thioguanosine was mixed with HSC expansion media and added to the cultures to obtain final concentrations of 11, 33, 100 nM. Equivalent amounts of DMSO alone (vehicle control) were added to parallel cultures for comparison. Half-media changes were performed approximately every 24 hrs. Cultures were analyzed after 72 hrs exposure to the indicated drug.

Compound | activity in vivo [1] | reversal of resistance to PI3K and Akt inhibitors [2] | inhibition of pS552-β-catenin (Western) ([3]; TOP and FOP cells treated 48 hours at EC90, EC50, EC25) | concentration needed to inhibit pS552-β-catenin ([3]; relatively high concentrations) | effect on pan β-catenin (Western) [4] | potency relative to DXR [5]
Oc1nc(-c2ccc(C(F)(F)F)cc2)nc2c1CSCC2 [XAV-939] | low activity of this inhibitor in vivo | reverse this resistance in vitro |  |  |  | 
C=CS(=O)(=O)N(Cc1ccccc1Br)[C@H](CO)Cc1ccccc1 [compound 0105375, (S)-N-(2-bromobenzyl)-N-(1-hydroxy-3-phenylpropan-2-yl)ethenesulfonamide] |  |  | effectively inhibited pS^552-β-catenin | > 1 μM | no significant effect on pan β-catenin | far less potency than DXR
